Results from patent publication US20200384014A1, “Pulsed Administration Of Inhaled Nitric Oxide For The Treatment Of Pulmonary Hypertension” (Bellerophon Pulse Technologies LLC, priority 2017, published 2020).

Test system: systolic pulmonary arterial pressure (sPAP) in subjects with PH-COPD
Assay: Phase 2 placebo-controlled clinical study of pulsed iNO in subjects with PH-COPD on LTOT (IK-7002-COPD-201; NCT01728220)
Type: in vivo, human
Set-up: Average Change in sPAP vs Baseline: unit not given beside the values
Details: for Average Change in sPAP vs Baseline: PH-COPD subjects on LTOT, echocardiography
Source text: This study was a Phase 2, placebo-controlled, double-blind, randomized, two-part, dose-confirming clinical study characterizing the pharmacodynamic effects of pulsed iNO versus placebo in subjects with PH-COPD on LTOT (IK-7002-COPD-201; NCT01728220). The primary outcome of this study was change in systolic pulmonary arterial pressure (sPAP) from baseline after treatment with iNO (measured by 2D transthoracic echocardiography with Doppler). The secondary outcome was the occurrence of a decrease ≥5 mm Hg of partial pressure of oxygen in arterial blood (PaO2) from baseline after treatment with iNO.
Subjects also had tricuspid regurgitation velocity (TRV)≥2.9 m/s as measured by echocardiogram, a post-bronchodilatory forced expiratory volume in 1 second/forced vital capacity (FEV1/FVC)<0.7 and a FEV1<60% predicted. All subjects were at least 40 years old and were former smokers with at least 10 pack-years of tobacco cigarette smoking before study entry. All subjects also had been receiving LTOT for at least 3 months for at least 10 hours per day.
PH-COPD subjects were administered pulsed iNO at a dose of 3, 10, 15, 30 or 75 mcg/IBW kg/hr for at least 20 minutes, or received pulsed placebo (99.999% N2) for at least 20 minutes. The doses of 3 and 10 mcg/kg IBW/hr were administered from a mini-cylinder having 2,440 ppm NO and the doses of 15, 30 and 75 mcg/kg IBW/hr were administered from a mini-cylinder having 4,880 ppm NO.
The NO delivery device delivered gas comprising NO in a pulsatile manner at the beginning of the patient's breath. The minimum pulse volume is limited and for lower doses, can require 1 or more breaths to be skipped to maintain a constant dose in mcg/kg IBW/hr.

Structure (SMILES): [N]=O [iNO, nitric oxide]
- Average Change in sPAP vs Baseline (pulsed iNO 10 mcg/kg IBW/hr for at least 20 minutes, N=21): −4.4
- Average Change in sPAP vs Baseline (pulsed iNO 15 mcg/kg IBW/hr for at least 20 minutes, N=21): −2.4
- Average Change in sPAP vs Baseline (pulsed iNO 30 mcg/kg IBW/hr for at least 20 minutes, N=24): −4.5
- Average Change in sPAP vs Baseline (pulsed iNO 75 mcg/kg IBW/hr for at least 20 minutes, N=24): −4.3
- Efficacy (decrease in sPAP), in words (pulsed iNO 3 mcg/kg IBW/hr): ineffective
- Efficacy (decrease in sPAP), in words (pulsed iNO 10 mcg/kg IBW/hr): showed efficacy
- Efficacy (decrease in sPAP), in words (pulsed iNO 15 mcg/kg IBW/hr): did not show efficacy
- Efficacy (decrease in sPAP), in words (pulsed iNO 30 mcg/kg IBW/hr): showed efficacy
- Efficacy (decrease in sPAP), in words (pulsed iNO 75 mcg/kg IBW/hr): showed efficacy
